Bounds are passed on as bounds.

For the experiment, the system named is human DMS. Description: In vivo assay: intracerebral injection of human DMS plus compound into rats, histology of DMS disruption site. Conditions: for Mean Volume Disrupted DMS: mean tissue volume of transformed redistributed disrupted DMS protein per individual DMS, rats, about 100,000 human DMS and compound at 10^−5M; for Persistence of Inflamm. Reaction: ratio of number of acute inflammatory cells (excluding macrophages) per DMS at the DMS disruption site; for Persistence of Inflamm. Reaction / Digestion and removal of DMS: compared to control (ii) normalized to 1.0, compound at 10^−5M; for Digestion and removal of DMS: ratio of number of macrophages containing DMS material per DMS at the DMS disruption site.

As to `CC(Cc1ccccc1)N1CCN(C(c2ccccc2)c2ccccc2)CC1` (racemic) [Compound 1, (±)-1-(1-Phenylisopropyl)-4-(diphenylmethyl)piperazine], the “Mean Volume Disrupted DMS” value amounted to 1250 μ^3; the “Persistence of Inflamm. Reaction” value is listed as <0.01; the “Digestion and removal of DMS” value is recorded as >10.

As for `Clc1ccc2c(c1)C(N1CCNCC1)=Nc1ccccc1O2` [Amoxepine], the “Mean Volume Disrupted DMS” value is 1.36 × 10^5 μ^3; the “Persistence of Inflamm. Reaction” value was 1.1; the “Digestion and removal of DMS” value worked out at 1.0.

As to `CN1[C@@H]2CC[C@H]1C[C@@H](OC(=O)C(CO)c1ccccc1)C2` (stereo partly drawn) [Atropine], the “Persistence of Inflamm. Reaction” value was 1.0; the “Digestion and removal of DMS” value is recorded as 1.0.

For the molecule `CC(C)C[C@H]1C(=O)N2CCC[C@H]2[C@]2(O)O[C@](NC(=O)[C@@H]3C=C4c5cccc6[nH]c(Br)c(c56)C[C@H]4N(C)C3)(C(C)C)C(=O)N12` [Bromocriptine], the “Mean Volume Disrupted DMS” value is 1.04 × 10^5 μ^3; the “Persistence of Inflamm. Reaction” value was found to be 1.0; the “Digestion and removal of DMS” value was determined as 1.0.

Take `c1ccc(C(OCCOC(c2ccccc2)c2ccccc2)c2ccccc2)cc1` [Compound 2, 1,2-Bis(diphenylmethoxy)ethane]: the “Mean Volume Disrupted DMS” value is 560 μ^3; the “Persistence of Inflamm. Reaction” value is recorded as <0.01; the “Digestion and removal of DMS” value was >10.

Regarding `Clc1ccc(C(OCCOC(c2ccccc2)c2ccc(Cl)cc2)c2ccccc2)cc1` (stereo not drawn) [Compound 4, 1,2-Bis(4chlorophenylphenylmethoxy)ethane], the “Mean Volume Disrupted DMS” value was 580 μ^3; the “Persistence of Inflamm. Reaction” value was <0.01; the “Digestion and removal of DMS” value is recorded as >10.

Consider `FC(F)(F)c1ccc(C(OCCOC(c2ccccc2)c2ccc(C(F)(F)F)cc2)c2ccccc2)cc1` (stereo not drawn) [Compound 5, 1,2-Bis(4-trifluoromethylphenylphenylmethoxy)ethane], for which the “Mean Volume Disrupted DMS” value was determined as 940 μ^3; the “Persistence of Inflamm. Reaction” value is <0.01; the “Digestion and removal of DMS” value is on record as >10.

Take `Cc1ccccc1C(OCCOC(c1ccccc1)c1ccccc1C)c1ccccc1` (stereo not drawn) [Compound 6, 1,2-Bis(2-methylphenylphenylmethoxy)ethane]: the “Mean Volume Disrupted DMS” value is 940 μ^3; the “Persistence of Inflamm. Reaction” value is reported as <0.01; the “Digestion and removal of DMS” value is listed as >10.

On to `CN(CCC=C1c2ccccc2CCc2ccccc21)CCOC(c1ccccc1)c1ccccc1` [Compound 9, 3-(10,11-Dihydro-5H-dibenzo[a,d]cyclohepten-5-ylidene-N-methyl-N-[2-(diphenylmethoxy)ethyl)]-1-propaneamine], for which the “Mean Volume Disrupted DMS” value is on record as 482 μ^3; the “Persistence of Inflamm. Reaction” value was <0.01; the “Digestion and removal of DMS” value was >10.

On to `CN(CCC=C1c2ccccc2CCc2ccccc21)CCOC(c1ccccc1)c1ccc(Cl)cc1` (stereo not drawn) [Compound 10, 3-(10,11-Dihydro-5H-dibenzo[a,d]cyclohepten-5-ylidene-N-methyl-N-[2-(4-chlorophenylphenylmethoxy)ethyl)]-1-propaneamine], for which the “Mean Volume Disrupted DMS” value came out at 460 μ^3; the “Persistence of Inflamm. Reaction” value is listed as <0.01; the “Digestion and removal of DMS” value is on record as >10.

For the molecule `COC(=O)C1=C(C)N(CCOC(c2ccccc2)c2ccccc2)C(C)=C(C(=O)OC)C1c1ccccc1` [Compound 11], the “Mean Volume Disrupted DMS” value was 1260 μ^3; the “Persistence of Inflamm. Reaction” value was <0.01; the “Digestion and removal of DMS” value is >10.

For the molecule `CC(COc1ccc(/C(=C/c2ccccc2)c2ccccc2)cc1)N1CCN(C(c2ccccc2)c2ccccc2)CC1` (stereo not drawn) [Compound 12], the “Mean Volume Disrupted DMS” value came out at 740 μ^3; the “Persistence of Inflamm. Reaction” value is <0.01; the “Digestion and removal of DMS” value was >10.

On to `Cn1cnc2c1c(=O)n(CCOC(c1ccccc1)c1ccccc1)c(=O)n2C` [Compound 13], for which the “Mean Volume Disrupted DMS” value was 1625 μ^3; the “Persistence of Inflamm. Reaction” value is listed as <0.01; the “Digestion and removal of DMS” value is on record as >10.

As to `Cn1cnc2c1c(=O)n(CCOC(c1ccccc1)c1ccc(Cl)cc1)c(=O)n2C` (stereo not drawn) [Compound 14], the “Mean Volume Disrupted DMS” value is 1625 μ^3; the “Persistence of Inflamm. Reaction” value is <0.01; the “Digestion and removal of DMS” value is >10.

Regarding `CN1C(=O)CN=C(c2ccccc2)c2cc(Cl)ccc21` [Diazepam], the “Mean Volume Disrupted DMS” value is listed as 6.5 × 10^4 μ^3; the “Persistence of Inflamm. Reaction” value is 1.1; the “Digestion and removal of DMS” value came to 1.0.

On to `CC[N+](C)(C)c1cccc(O)c1` [Edrophonium Chloride], for which the “Persistence of Inflamm. Reaction” value is 1.0; the “Digestion and removal of DMS” value was 1.0.

As to `C[C@@H](CO)NC(=O)[C@@H]1C=C2c3cccc4[nH]cc(c34)C[C@H]2N(C)C1` [Ergonovine], the “Mean Volume Disrupted DMS” value was 5.2 × 10^4 μ^3; the “Persistence of Inflamm. Reaction” value was found to be 1.0; the “Digestion and removal of DMS” value turned out to be 1.0.

`CN1C[C@H](C(=O)N[C@]2(C)O[C@@]3(O)[C@@H]4CCCN4C(=O)[C@H](Cc4ccccc4)N3C2=O)C=C2c3cccc4[nH]cc(c34)C[C@H]21` [Ergotamine]: the “Mean Volume Disrupted DMS” value was 5.8 × 10^4 μ^3; the “Persistence of Inflamm. Reaction” value is recorded as 1.0; the “Digestion and removal of DMS” value is on record as 1.0.

Regarding `CN(C)CCCN1c2ccccc2CCc2ccccc21` [Imipramine], the “Mean Volume Disrupted DMS” value is 1.38 × 10^5 μ^3; the “Persistence of Inflamm. Reaction” value was found to be 1.0; the “Digestion and removal of DMS” value turned out to be 1.0.

`O=C1Nc2ccc(Cl)cc2C(c2ccccc2Cl)=NC1O` (stereo not drawn) [Lorazepam]: the “Mean Volume Disrupted DMS” value is listed as 8.2 × 10^4 μ^3; the “Persistence of Inflamm. Reaction” value was 1.1; the “Digestion and removal of DMS” value was 1.0.

Take `CCOC(=O)C1(c2ccccc2)CCN(C)CC1` [Meperidine]: the “Mean Volume Disrupted DMS” value is 2.1 × 10^5 μ^3; the “Persistence of Inflamm. Reaction” value was 1.0; the “Digestion and removal of DMS” value turned out to be 1.0.

Consider `COC(=O)C(c1ccccc1)C1CCCCN1` (stereo not drawn) [Methylphenidate], for which the “Mean Volume Disrupted DMS” value is 5.8 × 10^4 μ^3; the “Persistence of Inflamm. Reaction” value is given as 1.1; the “Digestion and removal of DMS” value is 1.01.

Regarding `CN(C)C(=O)Oc1cccc([N+](C)(C)C)c1` [Neostigmine], the “Mean Volume Disrupted DMS” value is on record as 1.4 × 10^5 μ^3; the “Persistence of Inflamm. Reaction” value is reported as 1.1; the “Digestion and removal of DMS” value worked out at 1.0.

For `O=C1Nc2ccc(Cl)cc2C(c2ccccc2)=NC1O` (stereo not drawn) [Oxazepam], the “Mean Volume Disrupted DMS” value is listed as 6.8 × 10^4 μ^3; the “Persistence of Inflamm. Reaction” value is 1.1; the “Digestion and removal of DMS” value was determined as 1.0.

On to `CCCN1C[C@H](CSC)C[C@@H]2c3cccc4[nH]cc(c34)C[C@H]21` [Pergolide], for which the “Mean Volume Disrupted DMS” value is recorded as 1.2 × 10^5 μ^3; the “Persistence of Inflamm. Reaction” value is given as 1.1; the “Digestion and removal of DMS” value was determined as 1.0.

As to `CNC(=O)Oc1ccc2c(c1)[C@]1(C)CCN(C)[C@@H]1N2C` [Physostigmine], the “Mean Volume Disrupted DMS” value is 1.1 × 10^5 μ^3; the “Persistence of Inflamm. Reaction” value turned out to be 1.0; the “Digestion and removal of DMS” value is recorded as 1.0.

On to `CC[C@@H]1C(=O)OC[C@@H]1Cc1cncn1C` [Pilocarpine], for which the “Mean Volume Disrupted DMS” value is 1.7 × 10^5 μ^3; the “Persistence of Inflamm. Reaction” value is 1.1; the “Digestion and removal of DMS” value was 1.0.

On to `CN(C)C(=O)Oc1ccc[n+](C)c1` [Pyridostigmine bromide], for which the “Persistence of Inflamm. Reaction” value was found to be 1.1; the “Digestion and removal of DMS” value worked out at 1.0.

Consider `C#CCN(C)[C@H](C)Cc1ccccc1` [Selegiline], for which the “Mean Volume Disrupted DMS” value was 1.3 × 10^5 μ^3; the “Persistence of Inflamm. Reaction” value is 1.0; the “Digestion and removal of DMS” value was found to be 1.0.

As for `Nc1c2c(nc3ccccc13)CCCC2` [Tacrine], the “Mean Volume Disrupted DMS” value is on record as 1.4 × 10^5 μ^3; the “Persistence of Inflamm. Reaction” value was 1.1; the “Digestion and removal of DMS” value stood at 1.0.
